Experimental data: ChEMBL document CHEMBL3865835, “α-Glucosidase and α-Amylase Inhibitors from Arcytophyllum thymifolium” (J Nat Prod, 2016)
The source made the active and inactive calls. No cut-off for these calls is given here.

Columns and labels:
[1] = target: T1, Pancreatic alpha-amylase (Sus scrofa) (UniProt P00690); assay: (§1) Inhibition of hog pancreas alpha-amylase using starch as substrate preincubated for 10 mins followed by substrate addition measured after 10 mins by dinitrosalicylic acid color reagent-based UV-Vis spectrophotometric analysis
T1 sequence (whole entry): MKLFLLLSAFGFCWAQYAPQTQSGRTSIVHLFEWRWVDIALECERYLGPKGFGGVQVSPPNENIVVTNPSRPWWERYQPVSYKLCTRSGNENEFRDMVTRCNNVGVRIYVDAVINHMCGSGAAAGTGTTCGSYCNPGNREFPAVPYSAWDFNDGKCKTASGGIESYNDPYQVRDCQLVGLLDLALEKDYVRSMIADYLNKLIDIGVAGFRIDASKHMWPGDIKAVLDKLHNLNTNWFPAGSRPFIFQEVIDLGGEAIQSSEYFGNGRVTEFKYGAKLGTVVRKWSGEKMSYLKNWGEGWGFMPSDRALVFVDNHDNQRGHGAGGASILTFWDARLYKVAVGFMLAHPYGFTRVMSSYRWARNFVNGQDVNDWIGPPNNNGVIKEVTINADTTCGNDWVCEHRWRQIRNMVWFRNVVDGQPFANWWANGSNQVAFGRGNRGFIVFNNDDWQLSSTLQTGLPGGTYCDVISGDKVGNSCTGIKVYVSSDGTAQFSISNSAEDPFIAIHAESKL

[2] = target: T2, Pancreatic alpha-amylase (Sus scrofa, UniProt P00690); assay: as §1
T2 sequence (P00690 whole entry): T1 sequence (whole entry)

[3] = system: Saccharomyces cerevisiae; assay: (§2) Inhibition of Saccharomyces cerevisiae alpha-glucosidase using 4-nitrophenyl alpha-D-glucopyranoside as substrate after 10 mins by UV-Vis spectrophotometric analysis
[4] = as §2
[5] = system: Saccharomyces cerevisiae; assay: Potency index, ratio of acarbose IC50 to compound IC50 for Saccharomyces cerevisiae alpha-glucosidase

| inhibition [1] | inhibition [3] | Compound | other results |
| --- | --- | --- | --- |
| Active |  | O=C(/C=C/c1ccc(O)c(O)c1)O[C@@H]1C[C@](O)(C(=O)O)C[C@@H](O)[C@H]1O |  |
|  |  | COc1cc(O)c2c(=O)c(O)c(-c3ccc(O)c(O)c3)oc2c1 [RHAMNETIN] | IC50 [2]: 73.9 µM |
| Active |  | O=c1c(O[C@@H]2O[C@H](CO)[C@H](O)[C@H](O)[C@H]2O[C@@H]2O[C@H](CO)[C@@H](O)[C@H](O)[C@H]2O)c(-c2ccc(O)cc2)oc2cc(O)cc(O)c12 |  |
| Active |  | C[C@]1(CO)Oc2c(O)cc3ccc(=O)oc3c2C=C1O |  |
|  | Active | COc1cc2ccc(=O)oc2c(O)c1O |  |
|  |  | CC(=O)OCC1=C[C@H](O)[C@@H]2C(C(=O)O)=CO[C@@H](O[C@@H]3O[C@H](CO)[C@@H](O)[C@H](O)[C@H]3O)[C@H]12 | IC50 [2]: 69.4 µM |
| Active | Active | C=C(C)C(O)Cc1c(O)c(OC)cc2ccc(=O)oc12 (configuration not stated) |  |
| Active | Active | C=C(C)[C@H]1Cc2c(c(O)cc3ccc(=O)oc23)O1 |  |
| Active | Active | COc1cc2ccc(=O)oc2c2c1O[C@](C)(CO)C(O)=C2 |  |
| Active |  | O=C(O)C1=CO[C@@H](O[C@@H]2O[C@H](CO)[C@@H](O)[C@H](O)[C@H]2O)[C@@H]2C(CO)=C[C@@H](O)[C@H]12 |  |
| Active |  | CC(=O)OCC1=C[C@@H]2OC(=O)C3=CO[C@@H](O[C@@H]4O[C@H](CO)[C@@H](O)[C@H](O)[C@H]4O)[C@H]1[C@@H]32 |  |
|  |  | C[C@H]1O[C@H](O[C@H]2[C@H](O)[C@@H](O)[C@@H](O[C@H]3[C@H](O)[C@@H](O)C(O)O[C@@H]3CO)O[C@@H]2CO)[C@H](O)[C@@H](O)[C@@H]1N[C@H]1C=C(CO)[C@@H](O)[C@H](O)[C@H]1O (some centres not stated) [ACARBOSE] | IC50 [4]: 403 µM |
|  |  | CC(C)=CCOc1cc(O)c2c(c1)O[C@H](c1ccc(O)c(O)c1)CC2=O | IC50 [4]: 28.1 µM; Ratio IC50 [5]: 10 |
